Results on two compounds are retold here after article PMC6804243, “Small-Molecule Inhibition of UBE2T/FANCL-Mediated Ubiquitylation in the Fanconi Anemia Pathway” (ACS Chemical Biology, 2019).

The nature of data set [1]: Tolerance / cytotoxicity of compounds in U2OS cells. The data set is classed as cell-based. Conditions: human, u2os cells, 8 h assay, read-out: concentration above which cytotoxic. How it is done:
U2OS cells were treated with HU and the formation of mUb-FANCD2 in the presence of CU 1, CU2, and CU9 was evaluated relative to a DMSO control. Following a 1-h preincubation with the compounds, cells were treated with 2.5 mM of HU for 24 h. […] Accordingly, cells were treated with a higher concentration of compounds in further experiments.

A further data set concerns U2OS cells. Nature of the data set: Cell cycle analysis based on EdU incorporation. The conditions noted are these: for S-phase indices: CU1 200 μM or CU2 500 μM. The procedure:
Figure 3 Cell-based assays with CU1 and CU2: (a) Western blot showing that the formation of mUb-FANCD2(*), in response to HU treatment (2.5 mM, 8 h), is impaired in U2OS cells in the presence of CU1 (200 μM) or CU2 (500 μM). Ratio = mUb-FANCD2/FANCD2 (normalized to DMSO control). mUb-FANCD2 was resolved on a separate gel. PARP1 was used as a loading control for each gel, as well as to assess apoptosis. (b) Quantification of the reduction in mUb-FANCD2, in response to HU treatment (2.5 mM, 8 h) in the presence of CU1 (200 μM) or CU2 (500 μM). Mean calculated from three independent experiments. (c) Western blot showing that formation of mUb-FANCD2 (denoted by an asterisk symbol, *) in response to cisplatin treatment (10 μM) for 6, 12, and 24 h is impaired in U2OS cells in the presence of CU2 (500 μM). Ratio = mUb-FANCD2/FANCD2 (normalized to DMSO control). (d) Cell cycle analyses based upon EdU incorporation in cells treated with HU (2.5 mM, 8 h) in the presence or absence of CU1 (200 μM) or CU2 (500 μM). HU treatment was used for gating purposes. […] TEXT PRINTED IN THE PICTURE: (d) DMSO: S-phase 42.7; G1 29.2; G2-M 27.8 | (d) HU: S-phase 0.24; G1 72.4; G2-M 22.9 | (d) CU1: S-phase 43.4; G1 26.8; G2-M 29.1 | (d) CU2: S-phase 39.7; G1 31.9; G2-M 28.2 DOUBTS OF THE COPYIST ABOUT THIS PICTURE: Panel d print is small, so these digits are best readings: DMSO G2-M 27.8 (8 or 6); CU1 G1 26.8 (6 or 8); CU2 S-phase 39.7 (9 or 8); CU2 G2-M 28.2 (8 or 6) / Panels a and c: the lane ratios printed under the western blots (a: 1.0, 0.64, 0.40; c: 1.0/0.65, 1.0/0.63, 1.0/0.53) were left out because they belong to blots and the picture prints no measure for them […]
As DNA damage induced by HU is cell-cycle-dependent, it was necessary to establish whether CU1 and CU2 might simply prevent cells from entering the S-phase, which would also manifest itself as a reduction in mUb-FANCD2. This was determined by analysis of several biomarkers linked to DNA damage in cycling cells. […]

Another data set relates to UBE2T. The data set is described as follows: Binding to UBE2T by differential scanning fluorimetry, ligand-observed NMR, native mass spectrometry. Conditions: native mass spectrometry (unpublished data).

With `NCCN1C(=O)CC[C@H]2CN(Cc3cccc(-c4ccco4)c3)CC[C@H]21` [CU1], in data set [1], the MCC at 8 h was above 300 µM. Moreover, the EdU incorporation intensity entry with U2OS cells (CU1 200 μM) is “slightly lower”. In the data set on U2OS cells, the S-phase indices result is on record as “no reduction in S-phase indices”.

On to `CCN1CCN(c2cc(C)nc3nc(CN4CCCCC4C)nn23)CC1` (centres unmarked) [CU2], for which, in the data set with UBE2T, the “binding to UBE2T” value was “did not observe binding”. For the same compound, the S-phase indices entry in the data set with U2OS cells is listed as “no reduction in S-phase indices”.
